Entries after “also recorded” stand apart in the source; their conditions may differ.
Columns and labels:
[1] = test system: common grass weeds, such as barnyard grass; experiment: Grass weed control by ACCase herbicides in rice; type: in vivo; details: for control of common grass weeds in rice: in vivo
Excerpt: (§1) FIG. 5 illustrates grass weed control by the ACCase inhibitor quizalofop; control is shown by the prevalent grass weed (dead plants) being killed by quizalofop (77 gm ai/ha) while the resistant line ML0831265-01493 (live plants) were not injured.
Rice is tolerant to certain ACCase inhibitor herbicides, for example cyhalofop is registered for use in rice. However other ACCase herbicides kill or severely injure rice to varying degrees. […] The applied rates of both types of herbicides giving the weed control are well within the tolerance level of the respective ACCase and HPPD tolerant lines including the combined lines carrying tolerance to both HPPD and ACCase herbicides.

line PL1214418M2-80048 = experiment: Herbicide tolerance of the combined HPPD and ACCase line; set-up: species or system rice; details: in vivo
Excerpt: An early maturing group of plants was harvested as early as possible and the seeds planted in the greenhouse to help quickly advance to the F4 generation. Selections on the F3 plants were made by molecular markers flanking the HPPD tolerance mutation and native tolerance the ACCase functional mutation. Homozygous plants for all the selected genomic regions were advanced to the F5 generation. The F5 seed was confirmed to carry tolerance to ACCase herbicides and the HPPD herbicide mesotrione. Among the F5 lines PL1214418M2-80048 was selected due to a high seed yield and being homozygous for the ACCase tolerance mutation at position G2096S, the HPPD tolerance mutation, and the HPPD tolerance native gene. Seed from the line PL1214418M2-80048 was deposited at the ATCC and given a deposit number PTA-121362 (see Table 8).
Individuals with tolerance to both mesotrione and ACCase herbicides were selfed to produce F3 families and further selected for other important agronomic characters. The F3 lines were selfed and purified to derive a new line or variety with dual resistance to mesotrione and ACCase herbicides. Such lines are highly valuable as the use of both herbicides provides more complete and broad-spectrum weed control. […]

[2] = test system: HPPD tolerant line ML0831266-03093; experiment: ACCase herbicide field trial; type: in vivo, rice; details: for resistance to ACCase inhibiting herbicides compared with line P1003: 0.5x to 4x of label rate (fluazifop 210 gmai/ha, quizalofop 77 gmai/ha)
Method: (§2) FIG. 3A-3B is a photograph of line ML0831266-03093 that in addition to resistance to HPPD herbicides also has enhanced resistance to ACCase herbicides. […] Picture taken four weeks after herbicide application.
(§3) During the process of showing equivalent resistance of the ACCase tolerance in the new line PL1214418M2-73009, the HPPD tolerant line ML0831266-03093 was also evaluated for response to ACCase tolerance by application of the ACCase herbicides fluazifop at 0.5×, 1×, 2×, and 4× multiples of the label application rate (210 gmai/ha) and quizalofop at 0.5×, 1×, 2×, and 4× multiples of the label application rate (77 gmai/ha). In the field trials the resistant HPPD line ML0831266-03093 was planted in a row adjacent to the parent line P1003. […] By combining the HPPD tolerance with the ACCase tolerance the newly developed line PL1214418M2-73009, or any other new line and other derived lines because resistance is heritable and can be bred into lines e.g. progeny may carry a higher tolerance to ACCase inhibiting herbicides than lines developed from only the ACCase inhibitor resistant line ML0831265-01493.

line P1003 = experiment: ACCase herbicide field trial; type: in vivo, rice; details: four weeks after application
Method: as §2, §3

line PL1214418M2-73009 = experiment: ACCase herbicide field trial; type: in vivo, rice; details: for tolerance to ACCase herbicide compared with donor line ML0831265-01493: 0.5x to 4x of label rate (fluazifop 210 gmai/ha, quizalofop 77 gmai/ha)
Method: FIG. 2 is a graphical representation of a trait tolerance trial; the trial rice were planted, quizalofop was applied at the indicated rates about 5 weeks later (initiating tillering); the rice was evaluated for the percent of injury or damage as compared to unsprayed rice four weeks after herbicide application; line ML0831265-01493 is the ACCase resistant line and R0146 and P1003 are control lines; the line PL1214418M2-73009 was selected out of a cross between the HPPD tolerant line ML0831266-03093 (parent is P1003) and the ACCase tolerant line ML0831265-01493 (parent is R0146).
(§4) Another trial was conducted to confirm recovery of the ACCase inhibitor resistance from the G2096S mutation as in the line ML0831265-01493. In this trial the new line PL1214418-73009 with combined HPPD and ACCase tolerance was planted in a row along with other various lines including the original donor line ML0831265-01493 (planted in a plot), ML0831266-03093, P1003, R0146 parent line for ACCase tolerance. The lines were all tested with the ACCase herbicides fluazifop at 0.5×, 1×, 2×, and 4× multiples of the label application rate (210 gmai/ha) and quizalofop at 0.5×, 1×, 2×, and 4× multiples of the label application rate (77 gmai/ha).

line ML0831265-02283 = experiment: ACCase herbicide field trial; type: in vivo, rice
Excerpt: After screening a large mutant population, the line ML0831265-02283 also survived application of the ACCase herbicide quizalofop. The line was increased to obtain sufficient seed for larger trials to evaluate its tolerance to ACCase herbicides. The tolerance to ACCase herbicides in line ML0831265-02283 was validated by planting in the field plots (5 feet by 10 feet) of the line, the non-mutant parent line R0146, a second non-mutant line P1003, and the ACCase tolerant line ML0831265-01493. The ACCase herbicide quizalofop was applied at the four leaf stage at 0.5×, 1×, 2×, and 4× multiples of the labeled rate (77 gmai/ha). Twenty one days after the herbicide was applied the plots were evaluated for percent injury caused to the rice based on control plots that had no herbicide application (FIG. 8). The data confirms the tolerance of line ML0831265-02283 and it may even carry more tolerance than line ML0831265-01493 as shown by less injury at the 2× and 4× rates of quizalofop.

[3] = test system: ACCase resistant line ML0831265-01493; experiment: ACCase herbicide field trial; type: in vivo, rice; details: quizalofop 77 gm ai/ha
Method: as §1, §4
After screening a large mutant population, the line ML0831265-02283 also survived application of the ACCase herbicide quizalofop. The line was increased to obtain sufficient seed for larger trials to evaluate its tolerance to ACCase herbicides. […] Twenty one days after the herbicide was applied the plots were evaluated for percent injury caused to the rice based on control plots that had no herbicide application (FIG. 8). […]

| SMILES | control of common grass weeds in rice [1] | tolerance to the herbicide (line PL1214418M2-80048) | resistance to ACCase inhibiting herbicides compared with line P1003 [2] | killing of rice plants (line P1003; fluazifop alone 210 gmai/ha at initiation of tillering) | tolerance to ACCase herbicide compared with donor line ML0831265-01493 (line PL1214418M2-73009) | tolerance to fluazifop (line PL1214418M2-73009; in vivo) | grass weed control ([1]; quizalofop 77 gm ai/ha, prevalent grass weed) | injury compared with line ML0831265-01493 (line ML0831265-02283; 2x and 4x of the labeled rate 77 gmai/ha, four leaf stage, 21 days after application) | survival in the screening of the mutant population (line ML0831265-02283; in vivo) | survival after quizalofop ([2]; 77 gm ai/ha, four weeks after application) | survival after quizalofop (line P1003; 77 gm ai/ha) | injury of the rice [3] |
| --- | --- | --- | --- | --- | --- | --- | --- | --- | --- | --- | --- | --- |
| CC(Oc1ccc(Oc2ccc(C(F)(F)F)cn2)cc1)C(=O)O (stereo not drawn) [fluazifop] | good control | tolerance | more resistance | no killing of the rice plants was observed | equivalent tolerance | tolerance |  |  |  |  |  |  |
| CC(Oc1ccc(Oc2cnc3cc(Cl)ccc3n2)cc1)C(=O)O (stereo not drawn) [quizalofop] | good control |  | more resistance |  | equivalent or better; also recorded: equivalent tolerance |  | killed | less injury | survived | surviving | does not survive | not injured |

From patent US9994862B2, “Rice resistant to HPPD and ACCase inhibiting herbicides” (priority 2011, dated 2018)
